Data: ChEMBL document CHEMBL2429833, “A new class of bactericidal agents against S. aureus, MRSA and VRE derived from bisindolylmethane” (Med Chem Res, 2013)
≈ marks a conversion by molar mass, not a printed value. Calls of active or inactive are those of the source. The calls are words filed in the database; no cut-off is given here.

Experiments:
[1] = test system: Enterococcus faecalis; assay: Bactericidal activity against vancomycin-resistant Enterococcus faecalis after 24 hrs; type: functional
[2] = test system: Enterococcus faecalis; assay: Antibacterial activity against vancomycin-resistant Enterococcus faecalis after 24 hrs by microdilution method; type: functional
[3] = test system: Escherichia coli; assay: Antibacterial activity against Escherichia coli ATCC 25922 after 24 hrs by microdilution method; type: functional, organism-based
[4] = test system: Staphylococcus aureus; assay: Antibacterial activity against Staphylococcus aureus ATCC 29213 after 24 hrs by microdilution method; type: functional; settings: ATCC 29213, 24 h
[5] = test system: Staphylococcus aureus; assay: Bactericidal activity against methicillin-resistant Staphylococcus aureus after 24 hrs; type: functional
[6] = test system: Staphylococcus aureus; assay: Bactericidal activity against Staphylococcus aureus ATCC 29213 after 24 hrs; type: functional; settings: ATCC 29213, 24 h
[7] = test system: Staphylococcus aureus; assay: Antibacterial activity against methicillin-resistant Staphylococcus aureus after 24 hrs by microdilution method; type: functional
[8] = test system: Pseudomonas aeruginosa; assay: Antibacterial activity against Pseudomonas aeruginosa ATCC 27853 after 24 hrs by microdilution method; type: functional, organism-based

Row | Compound | MBC [1] [µg/mL] | MIC [2] [µg/mL] | Activity [3] | MIC [4] [µg/mL] | MBC [5] [µg/mL] | MBC [6] [µg/mL] | MIC [7] [µg/mL] | Activity [8]
1 | COc1ccc(C(c2c[nH]c3ccc(Br)cc23)c2c[nH]c3ccc(Br)cc23)cc1 | 32 (≈ 62.7 µM) | 32 (≈ 62.7 µM) | inactive | 16 (≈ 31.4 µM) | 32 (≈ 62.7 µM) | 32 (≈ 62.7 µM) | 32 (≈ 62.7 µM) | inactive
2 | CC(c1ccccc1)(c1c[nH]c2ccc(Br)cc12)c1c[nH]c2ccc(Br)cc12 | – | > 256 | inactive | > 256 | – | – | > 256 | inactive
3 | COc1ccc(C(c2c[nH]c3ccc(Br)cc23)c2c[nH]c3ccc(Br)cc23)cc1OC | – | 256 (≈ 474 µM) | inactive | 128 (≈ 237 µM) | – | – | 256 (≈ 474 µM) | inactive
4 | Brc1ccc2[nH]cc(C(c3ccc4ccccc4c3)c3c[nH]c4ccc(Br)cc34)c2c1 | 32 (≈ 60.3 µM) | 32 (≈ 60.3 µM) | inactive | 16 (≈ 30.2 µM) | 32 (≈ 60.3 µM) | 16 (≈ 30.2 µM) | 32 (≈ 60.3 µM) | inactive
5 | Brc1ccc2[nH]cc(C(c3c[nH]c4ccc(Br)cc34)C3CCCCC3)c2c1 | 32 (≈ 65.8 µM) | 32 (≈ 65.8 µM) | inactive | 16 (≈ 32.9 µM) | 32 (≈ 65.8 µM) | 32 (≈ 65.8 µM) | 32 (≈ 65.8 µM) | inactive
6 | Oc1cccc(C(c2c[nH]c3ccc(Br)cc23)c2c[nH]c3ccc(Br)cc23)c1 | 8 (≈ 16.1 µM) | 4 (≈ 8.06 µM) | inactive | 1 (≈ 2.02 µM) | 2 (≈ 4.03 µM) | 1 (≈ 2.02 µM) | 2 (≈ 4.03 µM) | inactive
7 | COc1ccc2c(c1)OC(C)(C)CC2(c1c[nH]c2ccc(Br)cc12)c1c[nH]c2ccc(Br)cc12 | 8 (≈ 13.8 µM) | 8 (≈ 13.8 µM) | inactive | 4 (≈ 6.89 µM) | 8 (≈ 13.8 µM) | 4 (≈ 6.89 µM) | 4 (≈ 6.89 µM) | inactive
8 | O=[N+]([O-])c1ccc2[nH]cc(C(c3ccc(F)cc3)c3c[nH]c4ccc([N+](=O)[O-])cc34)c2c1 | – | > 256 | inactive | > 256 | – | – | > 256 | inactive
9 | CCOc1ccc2c(c1)OC(C)(C)CC2(c1c[nH]c2ccc(Br)cc12)c1c[nH]c2ccc(Br)cc12 | 32 (≈ 53.8 µM) | 32 (≈ 53.8 µM) | inactive | 8 (≈ 13.5 µM) | 32 (≈ 53.8 µM) | 8 (≈ 13.5 µM) | 32 (≈ 53.8 µM) | inactive
10 | N#Cc1ccc2[nH]cc(C(c3ccc(O)cc3)c3c[nH]c4ccc(C#N)cc34)c2c1 | – | > 256 | inactive | > 256 | – | – | > 256 | inactive
11 | CCCCCCCC(c1c[nH]c2ccc(Br)cc12)c1c[nH]c2ccc(Br)cc12 | – | > 256 | inactive | > 256 | – | – | > 256 | inactive
12 | c1ccc(C(c2c[nH]c3ccccc23)c2c[nH]c3ccccc23)cc1 | – | > 256 | inactive | > 256 | – | – | > 256 | inactive
13 | COc1ccc(C(c2c[nH]c3ccc(Br)cc23)c2c[nH]c3ccc(Br)cc23)c(OC)c1 | – | > 256 | inactive | 256 (≈ 474 µM) | – | – | 256 (≈ 474 µM) | inactive
14 | CC1(C)CC(c2c[nH]c3ccc(Br)cc23)(c2c[nH]c3ccc(Br)cc23)c2ccc(O)cc2O1 | 4 (≈ 7.06 µM) | 4 (≈ 7.06 µM) | inactive | 2 (≈ 3.53 µM) | 2 (≈ 3.53 µM) | 2 (≈ 3.53 µM) | 2 (≈ 3.53 µM) | inactive
15 | O=C(O)c1cn(C2CC2)c2cc(N3CCNCC3)c(F)cc2c1=O [CIPROFLOXACIN] | 64 (≈ 193 µM) | 64 (≈ 193 µM) | – | 0.25 (≈ 0.754 µM) | 32 (≈ 96.6 µM) | 0.5 (≈ 1.51 µM) | – | –
16 | CN(C)c1ccc(C(c2c[nH]c3ccc(Br)cc23)c2c[nH]c3ccc(Br)cc23)cc1 | – | 256 (≈ 489 µM) | inactive | 64 (≈ 122 µM) | – | – | 128 (≈ 245 µM) | inactive
17 | COc1cccc(C(c2c[nH]c3ccc(Br)cc23)c2c[nH]c3ccc(Br)cc23)c1OC | – | > 256 | inactive | 256 (≈ 474 µM) | – | – | 256 (≈ 474 µM) | inactive
18 | Brc1ccc2[nH]cc(C(c3ccccc3)c3c[nH]c4ccc(Br)cc34)c2c1 | – | 256 (≈ 533 µM) | inactive | 256 (≈ 533 µM) | – | – | 256 (≈ 533 µM) | inactive
19 | COc1ccc(Br)cc1C(c1c[nH]c2ccc(Br)cc12)c1c[nH]c2ccc(Br)cc12 | – | 256 (≈ 435 µM) | inactive | 128 (≈ 217 µM) | – | – | 256 (≈ 435 µM) | inactive
20 | Brc1ccc(C(c2c[nH]c3ccc(Br)cc23)c2c[nH]c3ccc(Br)cc23)cc1 | 64 (≈ 114 µM) | 64 (≈ 114 µM) | inactive | 8 (≈ 14.3 µM) | 64 (≈ 114 µM) | 16 (≈ 28.6 µM) | 32 (≈ 57.2 µM) | inactive
21 | CC(C)(c1c[nH]c2ccc(Br)cc12)c1c[nH]c2ccc(Br)cc12 | – | > 256 | inactive | > 256 | – | – | > 256 | inactive
22 | CCCCCCCCC(c1c[nH]c2ccc(Br)cc12)c1c[nH]c2ccc(Br)cc12 | – | > 256 | inactive | > 256 | – | – | > 256 | inactive
23 | O=[N+]([O-])c1ccc2[nH]cc(C(c3ccc(O)cc3)c3c[nH]c4ccc([N+](=O)[O-])cc34)c2c1 | 2 (≈ 4.67 µM) | 2 (≈ 4.67 µM) | inactive | 1 (≈ 2.33 µM) | 1 (≈ 2.33 µM) | 1 (≈ 2.33 µM) | 1 (≈ 2.33 µM) | inactive
24 | CCCC(c1c[nH]c2ccc(Br)cc12)c1c[nH]c2ccc(Br)cc12 | – | > 256 | inactive | > 256 | – | – | > 256 | inactive
25 | O=[N+]([O-])c1ccc(C(c2c[nH]c3ccc(Br)cc23)c2c[nH]c3ccc(Br)cc23)cc1 | 8 (≈ 15.2 µM) | 8 (≈ 15.2 µM) | inactive | 4 (≈ 7.62 µM) | 8 (≈ 15.2 µM) | 4 (≈ 7.62 µM) | 8 (≈ 15.2 µM) | inactive
26 | COc1ccc(OC)c(C(c2c[nH]c3ccc(Br)cc23)c2c[nH]c3ccc(Br)cc23)c1 | – | > 256 | inactive | 128 (≈ 237 µM) | – | – | 256 (≈ 474 µM) | inactive
27 | Oc1ccc(C(c2c[nH]c3ccc(Br)cc23)c2c[nH]c3ccc(Br)cc23)cc1 | 2 (≈ 4.03 µM) | 2 (≈ 4.03 µM) | inactive | 0.5 (≈ 1.01 µM) | 1 (≈ 2.02 µM) | 0.5 (≈ 1.01 µM) | 1 (≈ 2.02 µM) | inactive
28 | N#Cc1ccc2[nH]cc(C(c3ccc(F)cc3)c3c[nH]c4ccc(C#N)cc34)c2c1 | 8 (≈ 20.5 µM) | 8 (≈ 20.5 µM) | inactive | 1 (≈ 2.56 µM) | 1 (≈ 2.56 µM) | 1 (≈ 2.56 µM) | 1 (≈ 2.56 µM) | inactive
29 | Clc1ccc(C(c2c[nH]c3ccc(Br)cc23)c2c[nH]c3ccc(Br)cc23)cc1 | 8 (≈ 15.5 µM) | 8 (≈ 15.5 µM) | inactive | 4 (≈ 7.77 µM) | 8 (≈ 15.5 µM) | 4 (≈ 7.77 µM) | 8 (≈ 15.5 µM) | inactive
